{"source": "patent US20110021477A1", "about": "“COMBINATIONS COMPRISING […] AGENTS AND CORTICOSTERIODS” (priority 2004, published 2011)", "system": "ovoalbumin-sensitized guinea-pig isolated tracheal rings", "experiment": "Inhibition of antigen (ovoalbumin)-induced contraction in ovoalbumin-sensitized guinea-pig isolated tracheal rings (organ bath)", "protocol": "Male Dunkin-Hartley guinea-pigs (weighing 380-420 g) from Harlan Ibérica (St. Feliu de Codines, Spain) are used. They are housed, with free access to food and water, in rooms kept at 22±2° C. under a 12 hours light-dark cycle until the start of the experiment.\nThe animals are sensitised by means of two sessions of aerosolization with a solution of 5 mg/ml of ovoalbumin on days zero and 7 of the study. The aerosolization procedure consists of two 30-s nebulisations (Efbe air brush apparatus) with an interval of 5 minutes with animals maintained in a plexiglass box for 10 minutes since the beginning of the procedure.\nBetween days 14 to 20 from the beginning of the experiment the animals are euthanised and the tracheal tissue is removed. A single tracheal ring is excised and suspended in an organ bath containing Krebs solution. Once attached to a force isometric transducer, it is submitted to a basal resting tension of 1 g, equilibrated with a mixture a 5% CO2 in O2 and maintained at 37° C.\nThe preparations are allowed to equilibrate for a period of not less than 60 minutes and then the vehicle or the compound(s) to be tested are added to the bath. […] At this moment ovoalbumin is added (at a final concentration in the bath of 10 μg/ml) to elicit the contractile response which is measured immediately.\nThe contractile responses measured with a force isometric transducer are expressed in mg.", "data": [{"smiles": "C[C@H]1C[C@H]2[C@@H]3CCC4=CC(=O)C=C[C@]4(C)[C@@]3(Cl)[C@@H](O)C[C@]2(C)[C@@]1(O)C(=O)CO", "note": "[BECLOMETHASONE, beclomethasone]", "values": [{"measurement": "% INHIBITION OF THE CONTRACTILE RESPONSE", "setting": "each compound 10 μM in bath, ovoalbumin 10 μg/ml, relative to vehicle", "result": 12, "unit": "%"}, {"measurement": "inhibition of the contractile response to antigen, comparison in words", "setting": "ovoalbumin-sensitized guinea-pig tracheal rings, summary of Table 1 and FIG. 1", "result": "smaller effect"}]}]}
